In brackets after ≈: the same amount, converted by molar mass.
What was measured:
[1] = test system: bean aphid (Aphis fabae Scop.); test: Bean Aphid Foliage Spray Test; assay type: in vivo; design: key to Aphid: C: no control; B: partial control; A: excellent control; conditions: for Aphid: foliage spray, 500 parts per million, 24 hour; for LC50: Aphis fabae, foliar, Table II, side by side comparison, read-out: Aphids LD50
Protocol: (§1) Suspensions of the test compounds were prepared by dissolving one gram of compound in 50 milliliters of acetone in which had been dissolved 0.1 gram (10 percent of the weight of compound) of an alkylphenoxy polyethoxyethanol surfactant, as an emulsifying or dispersing agent. The resulting solution was mixed into 150 milliliters of water to give roughly 200 milliliters of a suspension containing the compound in finely divided form. The thus-prepared stock suspension contained 0.5 percent by weight of compound. The test concentrations in parts per million by weight employed in the tests described hereinbelow were obtained by appropriate dilutions of the stock suspension with water. The test procedures were as follows:
Adults and nymphal stages of the bean aphid (Aphis fabae Scop.) reared on potted dwarf nasturtium plants at 65°-70° F. and 50-70 percent relative humidity, constituted the test insects. For testing purposes, the number of aphids per pot was standardized to 100-150 by trimming plants containing excess aphids.
The test compounds were formulated by diluting the stock suspension with water to give a suspension containing 500 parts of test compound per million parts of final formulation.
The potted plants (one pot per compound tested) infested with 100-150 aphids, were placed on a revolving turntable and sprayed with 100-110 milliliters of test compound formulation by use of a DeVilbiss spray gun set at 40 psig. air pressure. This application, which lasted 25 seconds, was sufficient to wet the plants to run-off. As a control, 100-110 milliliters of a water-acetone-emulsifier solution containing no test compound were also sprayed on infested plants. After spraying, the pots were placed on their sides on a sheet of white standard mimeograph paper which had been previously ruled to facilitate counting. Temperature and humidity in the test room during the 24 hour holding period were 65°-70° F. and 50-70 percent, respectively. Aphids which fell onto the paper and were unable to remain standing after being uprighted were considered dead. Aphids remaining on the plants were observed closely for movement and those which were unable to move the length of the body upon stimulation by prodding were considered dead. Percent mortality was recorded for various concentration levels.
(§2) In the tests described above, the pesticidal activity of the compounds against aphid, mite, Southern Armyworm, Bean Beetle, house fly and nematode was rated as follows:
(§3) Comparison tests were conducted to assess the biological and chemical properties of certain representative species of the claimed invention in relation to their corresponding N-methyl carbamate compositions. The test procedures described above were employed in these experiments in order to determine the LD50 (number of parts per million of active ingredients required to achieve fifty percent mortality of the insects tested) for each of the compositions tested. In the case of the aphid and mite tests a side by side comparison was made of the N-methyl carbamate composition versus the corresponding perhalomethylsulfenyl derivative.

[2] = test system: root-knot nematode, Meloidogyne incognita var. acrita; test: Nematocide Test; assay type: in vivo; design: key: C: no control; B: partial control; A: excellent control; conditions: 3.33 m.g. per jar, galling of cucumber rated after approximately 3 weeks
Protocol: The test organism used was the infective migratory larvae of the root-knot nematode, Meloidogyne incognita var. acrita, reared in the greenhouse on roots of cucumber plants. Infected plants were removed from the culture, and the roots are chopped very finely. A small amount of this inoculum was added to a pint jar containing approximately 180 cc. of soil. The jars were capped and incubated for one week at room temperature. During this period eggs of the nematode were hatched, and the larval forms migrated into the soil.
Ten ml. of the test formulation were added to each of the two jars for each dosage tested. Following the addition of chemical, the jars were capped, and the contents thoroughly mixed on a ball mill for 5 minutes.
The test compounds were formulated by a standard procedure of solution in acetone addition of an emulsifier, and dilution with water. Primary screening tests were conducted at 3.33 m.g. of the test compound per jar.
The jars were left capped at room temperature for a period of 48 hours, and the contents then transferred to 3 inch pots. Subsequently, the pots were seeded to cucumber as an indicator crop and placed in the greenhouse where they were cared for in the normal fashion for approximately 3 weeks.
The cucumber plants were then taken from the pots, the soil removed from the roots, and the amount of galling visually rated.
In the tests described above, the pesticidal activity of the compounds against aphid, mite, Southern Armyworm, Bean Beetle, house fly and nematode was rated as follows: […]

[3] = test system: house flies (Musca domestica, L.); test: Fly Bait Test; assay type: in vivo; design: key to Fly: C: no control; B: partial control; A: excellent control; conditions: for Fly: bait, 500 parts per million, twenty-four hours; for LC50: Musca domestica, Table II, read-out: Housefly LD50
Protocol: as §1
Four to six day old adult house flies (Musca domestica, L.), reared according to the specifications of the Chemical Specialties Manufacturing Association (Blue Book, McNair-Dorland Co., N. Y. 1954; pages 243-244, 261) under controlled conditions of 80°±5° F. and 50±5 percent relative humidity, were the test insects. The flies were immobilized by anesthetizing with carbon dioxide and twenty-five immobilized individuals, males and females, were transferred to a cage consisting of a standard food strainer about five inches in diameter which was inverted over a wrapping-paper-covered surface. The test compounds were formulated by diluting the stock suspension with a 10 percent (by weight) sugar solution to give a suspension containing 500 parts of test compound per million parts of final formulation, by weight. Ten milliliters of the test formulation were added to a souffle cup containing a one-inch square of an absorbent cotton pad. This bait cup was introduced and centered on the blotting paper under the food strainer prior to admitting the anesthetized flies. The caged flies were allowed to feed on the bait for twenty-four hours, at a temperature of 80°±5° F. and the relative humidity of 50±5 percent.
as §2, §3

[4] = Peroral toxicity to mammals (rat); conditions: in vivo, po
Protocol: Certain of these compositions were also evaluated to determine their peroral toxicity to mammals. The animal selected for this experiment was the rat. The test results obtained are expressed in terms of the number of milligrams of composition per kilogram of weight of the animal required to achieve a mortality rate of 50 percent (LD50).

Chemical stability = assay type: physicochemical; conditions: Table II

CSCC(C)=NOC(=O)N(C)SC(Cl)(Cl)Cl
Aphid [1]: B
Nematode [2]: C
Fly [3]: A

CSCC(=NOC(=O)N(C)SC(Cl)(Cl)Cl)C(C)(C)C
Aphid [1]: A
Nematode [2]: C
Fly [3]: B

CC(CSC(C)(C)C)=NOC(=O)N(C)SC(Cl)(Cl)Cl
Aphid [1]: A
Nematode [2]: C
Fly [3]: C

CC(=NOC(=O)N(C)SC(Cl)(Cl)Cl)C(C)(C)N=[N+]=[N-]
Aphid [1]: A
Nematode [2]: C
Fly [3]: A

CC(=NOC(=O)N(C)SC(Cl)(Cl)Cl)C(C)(C)[N+](=O)[O-]
Aphid [1]: A
Nematode [2]: A
Fly [3]: A

CC(C[N+](=O)[O-])=NOC(=O)N(C)SC(Cl)(Cl)Cl
Aphid [1]: C
Nematode [2]: C
Fly [3]: A

CC(=NOC(=O)N(C)SC(Cl)(Cl)Cl)C(C)(C)C#N
Aphid [1]: A
Nematode [2]: C
Fly [3]: A

COC(C)(C)C(Cl)=NOC(=O)N(C)SC(Cl)(Cl)Cl
Aphid [1]: A
Nematode [2]: A
Fly [3]: A

CCOC(=O)CSC(C)(C)C=NOC(=O)N(C)SC(Cl)(Cl)Cl
Aphid [1]: A
Nematode [2]: C
Fly [3]: C

CCOC(=O)C(C)SC(C)(C)C=NOC(=O)N(C)SC(Cl)(Cl)Cl (stereo not shown)
Aphid [1]: A
Nematode [2]: C
Fly [3]: C

CSC(=NOC(=O)N(C)SC(Cl)(Cl)Cl)C(C)(SC)SC
Aphid [1]: A
Nematode [2]: C
Fly [3]: A

CCOC(=O)CSC(C)=NOC(=O)N(C)SC(Cl)(Cl)Cl
Aphid [1]: C
Nematode [2]: C
Fly [3]: C

CCOC(=O)CCSC(C)=NOC(=O)N(C)SC(Cl)(Cl)Cl
Aphid [1]: B
Nematode [2]: C
Fly [3]: B

CC(=NOC(=O)N(C)SC(Cl)(Cl)Cl)SCCC#N [1-(2-Cyanoethylthio)acetaldehyde O-(N-methyl-N-trichloromethanesulfenylcarbamoyl)oxime]
LC50 [1]: 10 µg/mL (≈ 28.5 µM)
Aphid [1]: A
Nematode [2]: C
LC50 [3]: 3 µg/mL (≈ 8.55 µM)
Fly [3]: A
LD50 ([4]; peroral, Table I): 85.7 mg/kg
Stability (Chemical stability): stable

CN(SC(Cl)(Cl)Cl)C(=O)ON=CC(C)(C)C#N [2-Methyl-2-cyanopropionaldehyde O-(N-methyl-N-trichloromethanesulfenylcarbamoyl)oxime]
LC50 [1]: 23 µg/mL (≈ 72.2 µM)
Aphid [1]: A
Nematode [2]: C
LC50 [3]: 7 µg/mL (≈ 22 µM)
Fly [3]: A
LD50 ([4]; Table II): 28.3 mg/kg
Stability (Chemical stability): stable

CN(SC(Cl)(Cl)Cl)C(=O)ON=CC(C)(C)[S+](C)[O-] (stereo not shown) [2-Methyl-2-methylsulfinylpropionaldehyde O-(N-methyl-N-trichloromethanesulfenylcarbamoyl)oxime]
Aphid [1]: A
Nematode [2]: A
Fly [3]: A

CN(SC(Cl)(Cl)Cl)C(=O)ON=CC(C)(C)S(C)(=O)=O [2-Methyl-2-methylsulfonylpropionaldehyde O-(N-methyl-N-trichloromethanesulfenylcarbamoyl)oxime]
Aphid [1]: A
Nematode [2]: C
Fly [3]: A

CN(SC(Cl)(Cl)Cl)C(=O)ON=CC(C)(C)[N+](=O)[O-] [2-Methyl-2-nitropropionaldehyde O-(N-methyl-N-trichloromethanesulfenylcarbamoyl)oxime]
LC50 [1]: 6 µg/mL (≈ 17.7 µM)
Aphid [1]: A
Nematode [2]: A
LC50 [3]: 5 µg/mL (≈ 14.8 µM)
Fly [3]: A
LD50 ([4]; Table II): 14 mg/kg
LD50 ([4]; peroral, Table I): 13 mg/kg
Stability (Chemical stability): stable

CN(SC(F)(F)F)C(=O)ON=CC(C)(C)C#N [drawing 12]
Aphid [1]: A
Nematode [2]: A
Fly [3]: A
